# Measured values as given in US10570177B2, “P3 peptidylic inhibitors for treating CAG-repeat RNA toxicity in polyglutamine diseases” (The Chinese University of Hong Kong, priority 2017, dated 2020).
# Values joined by “and” are separate entries in the source; they are usually repeats but may differ in a detail not shown here. Identical values can stand only once. “Also recorded” adds a separate entry of the source. Marks after values point to notes of the source that are not given here. Residues, ends and D or L forms follow the SMILES beside them. *: point of attachment. Palmitoyl = CCCCCCCCCCCCCCCC(=O)*
# Tests used:
# [1] = Plasma pharmacokinetic study in SD rat; conditions: for AUC0-last: Intranasal administration (pre-treated with 0.5% chitosan)
# Procedure: (§1) SD rats (180-200 g) were anesthetized with an intraperitoneal injection of ketamine (60 mg/kg) and xylazine (6 mg/kg) and received a minor surgery of cannulation with a polythene tube (0.4 mm i.d., 0.8 mm o.d., Harvard Apparatus, Holliston, Mass., USA) in the left jugular vein. The rats received an overnight recovery with free access to food and water. […] For the pharmacokinetic study, after the drug administration, blood samples were collected from the catheter at appropriate time intervals (2, 5, 10, 15, 20, 30, 45, 60, and 90 min). After each collection, 0.2 mL of saline containing 25 IU heparin was injected to compensate for the blood loss. Plasma was collected after centrifugation at 8000 rcf for 3.5 min and stored at −80° C. until analysis. For brain uptake study, at 20 min, the rat was anesthetized and perfused by 500 mL saline, and the whole brain was collected. The brain was wiped by tissue paper to remove excess water, meninges and blood vessels followed by storage at −80° C. until analysis.
# Aliquot of plasma sample (80 μL) was mixed with 160 μL acetonitrile. The mixture was vortexed for 1 min and followed by centrifugation at 13000 rcf for 10 min. The supernatant was collect and subjected to LC/MS/MS analysis.
# Agilent 6430 Triple Quadrupole LC/MS/MS system (Agilent Technologies, CA, USA) was employed for the analysis. For analysis of P3V8, chromatographic separation was achieved on a SunFire C8 Column (250 mm×4.6 mm, 5 μm). The mobile phase of water containing 0.2% formic acid (A) and acetonitrile (B) was used with a gradient elution (0-5 min, 20-70% B). The flow rate was 0.8 mL/min. Multiple reactions monitoring (MRM) with fragmentation transition of 500 to 129 in positive ion mode was employed for quantization of P3V8. […] Mobile phase of water (A) and acetonitrile (B) was used. The gradient elution for plasma samples was 0-4 min, 30-95% B, and for brain samples was 0-9 min, 10-95% B. The flow rate was 0.8 mL/min.
# Plasma concentration verse time profiles were analyzed by WinNonlin (Pharsight Corporation, Mountain View, Calif., USA, Version 2.1) to obtain the pharmacokinetics parameters. Other data were analyzed by one-way ANOVA followed by post hoc Tukey test or unpaired t-test. “*”, “**”, “***” and “****” represent P<0.05, P<0.01, P<0.001 and P<0.0001 respectively, which are considered statistically significant.
# [2] = In vitro stability in rat plasma; type: in vitro ADME; conditions: 37° C.
# Procedure: Sprague-Dawley (SD) rats (male, 180-200 g) were supplied by the Laboratory Animal Services Centre at The Chinese University of Hong Kong. All animal studies were conducted under the approval of the Animal Ethics Committee of The Chinese University of Hong Kong, and were performed in accordance with relevant guidelines and regulations. Blank rat brain homogenate was prepared by ultrasonic probe homogenization (Micoson XL-2000, Misonix, Framingdale, N.Y., USA) of brains collected from the control rats. Blank rat plasma was prepared by centrifugation (8000 rcf for 3.5 min) of blood collected from control rats. […] The mixtures were incubated at 37° C. with 100 rpm in a water bath for 1 or 3 hr. The incubation was terminated by addition twice the volume of acetonitrile and centrifugation at 13000 rcf for 10 min. The supernatant was collected for LC/MS/MS analysis.
# MJDCAG27 RNA = assay: Isothermal titration calorimetry binding assay, unexpanded MJDCAG27 RNA
# Procedure: To test whether P3V8 specifically targets expanded CAG RNA, ITC experiments were performed using unexpanded CAG RNA (MJDCAG27 RNA), expanded CAG RNA (MJDCAG78 RNA), and expanded CAA/G RNA (MJDCAA/G78 RNA), respectively, to investigate whether the binding of P3V8 is RNA expansion-dependent and sequence-dependent (Table 6).
# Experiments were carried out using a MicroCal iTC200 isothermal titration calorimeter (GE Healthcare) at 25° C. Data were analyzed using the Origin® scientific plotting software version 7 (Microcal Software Inc.). All RNAs and peptides were dissolved in binding buffer (20 mM MOPS, pH 7.0; 300 mM NaCl) and 0.7 mM of peptide was titrated into 0.5 μM of RNA for each experiment. The concentration of RNA was estimated with appropriate extinction coefficients at 260 nm on a Nanodrop 2000 (Thermo Scientific). A reference power of 8 μcal/s was used with an initial 0.5 μl of injection of peptide followed by 2 μl for all subsequent titrations points with a 60 sec initial equilibrium delay and 150 sec pause between injections. The samples were stirred at a speed of 1000 rpm throughout the experiment. The thermal titration data were fitted to the ‘one binding site model’ to determine the dissociation constant (KD). Each experiment was repeated at least 3 times with consistent results obtained.
# [3] = Brain uptake study in SD rat
# Procedure: as §1
# To prepare brain homogenate, the whole brain of each rat was minced. Saline (2 mL/g brain) was added followed by ultrasonic probe homogenization on ice. For analysis of P3V8, aliquot of brain homogenate (100 μL) was mixed with 200 μL acetonitrile. The mixture was vortexed for 1 min and followed by centrifugation at 13000 rcf for 10 min to collect the supernatant. […]
# [4] = test system: primary rat cortical neurons; assay: LDH cytotoxicity in primary rat cortical neurons; type: cell-based; conditions: 0.01 nM to 1 μM, 72 hr
# Procedure: A density of 5×10^5 of primary rat cortical neurons were seeded on culture dish and individually cultured in medium containing 0.01, 0.1, 1, 5, 10, 50, 100, 250, 500, 750, and 1000 nM of P3V8 peptide (transfected with DeliverX). The lactate dehydrogenase (LDH) cytotoxicity activity was measured 72 hr post-treatment. Fold change of LDH activity was normalized to untreated cells. Data are expressed as mean±S.E.M. for 3 independent experiments. NS indicates no significance.
# The LDH cytotoxicity activity was measured 72 hr posttreatment. Fold change of LDH activity was normalized to untreated cells. Data are expressed as mean±S.E.M. for 3 independent experiments. NS indicates no significance.
# Because of the aim to develop P3V8 into a potent inhibitor that targets RNA toxicity in degenerating cells within the nervous system, it was assessed whether P3V8 had deleterious effects on neuronal cells by determining lactate dehydrogenase release in the culturing medium of rat cortical neurons.
# [5] = Intravenous administration, 3 μmol/kg, SD rats
Compound,"AUC0-last ([1]; 3 μmol/kg, SD rats)","Cmax [1, 5]","T1/2 ([1]; rat, in vivo, iv, 3 umol/kg)","Pecentage of remained ([2]; 2000 ng/mL, incubation for 1 hr)","Pecentage of remained ([2]; 2000 ng/mL, incubation for 3 hr)","remaining at 1 h, 2000 ng/mL ([2]; male, Sprague-Dawley, rat, rat plasma, 2000 ng/mL, incubation for 1 hr, read-out: Pecentage of remained)","Kd (MJDCAG27 RNA; ITC, 0.7 mM peptide into 0.5 μM MJDCAG27 RNA, mean ± S.E.M.)",lower affinity than for expanded CAG RNA (MJDCAG27 RNA; unexpanded RNA vs expanded MJDCAG78 RNA),"brain concentration ([3]; 20 min after intravenous administration, 3 μmol/kg)","T1/2 [1, 5]","plasma concentration 90 min after dosing ([1]; intravenous, 3 μmol/kg)","Pecentage of remained ([2]; 500 ng/mL, incubation for 1 hr)","remaining at 1 h, 1000 ng/mL ([2]; male, Sprague-Dawley, rat, 1000 ng/mL, incubation for 1 hr, read-out: Pecentage of remained)",cytotoxicity (LDH release) [4],"tissue level at time molar at 20 min ([3]; Sprague-Dawley, rat, in vivo, iv, 3 umol/kg)"
Ac-DGKSKGIAYIEFK-NH2 [P3V8],85 ± 32 nmol·min/L,452 ± 22 nM,too short to be determined,20.7% and 20.7 ± 3.3%,almost completely degraded,21%,2190 ± 270 nM,6-9 fold,no and not detected,,,,,,
CCCCCCCCCCCCCCCC(=O)N[C@@H](CC(=O)O)C(=O)NCC(=O)N[C@@H](CCCCN)C(=O)N[C@@H](CO)C(=O)N[C@@H](CCCCN)C(=O)NCC(=O)N[C@H](C(=O)N[C@@H](C)C(=O)N[C@@H](Cc1ccc(O)cc1)C(=O)N[C@H](C(=O)N[C@@H](CCC(=O)O)C(=O)N[C@@H](Cc1ccccc1)C(=O)N[C@@H](CCCCN)C(N)=O)[C@@H](C)CC)[C@@H](C)CC [L1P3V8] (Palmitoyl-DGKSKGIAYIEFK-NH2),2277 ± 558*** min * nmol/L,10400 ± 1220 nM,,,,,,,,17 min,190 nM,88.1 ± 4.9%,98.7 ± 3.9%,no cytotoxic effects; also recorded: no cytotoxicity,0.013 nmol/g
